Laboratory results: patent US11497212B2, “Substituted thiophenyl uracils, salts thereof and the use thereof as herbicidal agents” (Syngenta Crop Protection AG, priority 2017, dated 2022)

Columns and labels:
Type in all cases: in vivo
Abutilon theophrasti [1] = experiment: Herbicidal action post-emergence (greenhouse pot trial); conditions: application rate 80 g/ha, scored visually after about 3 weeks vs untreated controls
Outline: (§1)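 Post-emergence spray at one-leaf stage (2–3 wk after sowing, sandy loam, greenhouse); WP/EC in water + 0.5% additive; 600 L/ha; rate 80 g/ha or less. Visual % efficacy at ~3 wk vs untreated (100 = dead).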

Alopecurus myosuroides [2] = experiment: as above; conditions: application rate 80 g/ha, scored visually after about 3 weeks vs untreated controls
Outline: as §1

Amaranthus retroflexus [3] = experiment: as above; conditions: application rate 80 g/ha, scored visually after about 3 weeks vs untreated controls
Outline: as §1

Echinochloa crus-galli [4] = experiment: as above; conditions: application rate 80 g/ha, scored visually after about 3 weeks vs untreated controls
Outline: as §1

Lolium rigidum [5] = experiment: as above; conditions: application rate 80 g/ha, scored visually after about 3 weeks vs untreated controls
Outline: as §1

Matricaria inodora [6] = experiment: as above; conditions: application rate 80 g/ha, scored visually after about 3 weeks vs untreated controls
Outline: as §1

Pharbitis purpurea [7] = experiment: as above; conditions: application rate 80 g/ha
Outline: as §1

Polygonum convolvulus = experiment: as above; conditions: application rate 80 g/ha, scored visually after about 3 weeks vs untreated controls
Outline: as §1

Setaria viridis [8] = experiment: as above; conditions: application rate 80 g/ha, scored visually after about 3 weeks vs untreated controls
Outline: as §1

Stellaria media [9] = experiment: as above; conditions: application rate 80 g/ha, scored visually after about 3 weeks vs untreated controls
Outline: as §1

Veronica persica [10] = experiment: as above; conditions: application rate 80 g/ha
Outline: as §1

Viola tricolor [11] = experiment: as above; conditions: application rate 80 g/ha
Outline: as §1

Oryza sativa = experiment: Crop compatibility post-emergence (greenhouse pot trial)
Outline: (§2)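 Compatibility is expressed as visually scored percent injury, where 0% means no difference from untreated controls and 100% means dead plants, assessed about 3 weeks after a foliar spray at 600 L/ha with 0.5% additive on one-leaf-stage pot plants in sandy loam.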

Triticum aestivum = experiment: as above
Outline: as §2

Abutilon theophrasti [12] = experiment: Herbicidal action pre-emergence (greenhouse pot trial); conditions: application rate 320 g/ha, scored after about 3 weeks
Outline: (§3)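 Pre-emergence soil-surface spray, 320 g/ha or lower, WP/EC formulations in water with 0.5% additive, 600 L/ha. Greenhouse, ~3 wk. Visual % efficacy vs untreated controls (100% = plants dead, 0% = like control).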

Alopecurus myosuroides [13] = experiment: as above; conditions: application rate 320 g/ha, scored after about 3 weeks
Outline: as §3

Amaranthus retroflexus [14] = experiment: as above; conditions: application rate 320 g/ha, scored after about 3 weeks
Outline: as §3

Avena fatua = experiment: as above; conditions: application rate 320 g/ha
Outline: as §3

Cyperus esculentus = experiment: as above; conditions: application rate 320 g/ha
Outline: as §3

Echinochloa crus-galli [15] = experiment: as above; conditions: application rate 320 g/ha, scored after about 3 weeks
Outline: as §3

Hordeum murinum [16] = experiment: as above; conditions: application rate 320 g/ha
Outline: as §3

Lolium rigidum [17] = experiment: as above; conditions: application rate 320 g/ha
Outline: as §3

Matricaria inodora [18] = experiment: as above; conditions: application rate 320 g/ha, scored after about 3 weeks
Outline: as §3

Pharbitis purpurea [19] = experiment: as above; conditions: application rate 320 g/ha
Outline: as §3

Setaria viridis [20] = experiment: as above; conditions: application rate 320 g/ha, scored after about 3 weeks
Outline: as §3

Stellaria media [21] = experiment: as above; conditions: application rate 320 g/ha, scored after about 3 weeks
Outline: as §3

Veronica persica [22] = experiment: as above; conditions: application rate 320 g/ha
Outline: as §3

Viola tricolor [23] = experiment: as above; conditions: application rate 320 g/ha, scored after about 3 weeks
Outline: as §3

Digitaria sanguinalis [24] = experiment: Herbicidal action post-emergence (greenhouse pot trial); conditions: application rate 80 g/ha
Outline: as §1

Hordeum murinum [25] = experiment: as above; conditions: application rate 80 g/ha, scored visually after about 3 weeks vs untreated controls
Outline: as §1

Digitaria sanguinalis [26] = experiment: Herbicidal action pre-emergence (greenhouse pot trial); conditions: application rate 80 g/ha
Outline: as §3

Glycine max = experiment: Crop compatibility pre-emergence (greenhouse pot trial); conditions: effect vs untreated controls
Outline: (§4)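 After soil-surface application of each compound to freshly sown pots (aqueous spray, 600 L/ha, 0.5% additive), plants grew under greenhouse conditions. Around 3 weeks later, injury was estimated visually on a 0–100% scale against controls.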

Zea mays = experiment: as above; conditions: application rate 80 g/ha, effect vs untreated controls
Outline: as §4

CC(Sc1cc(-n2c(=O)cc(C(F)(F)F)n(C)c2=O)c(F)cc1Cl)C(=O)NCC1CCCS1(=O)=O (stereo not shown) [I.1-275]
Abutilon theophrasti (Efficacy in %) (Abutilon theophrasti [1]): 100% | Alopecurus myosuroides (Efficacy in %) (Alopecurus myosuroides [2]): 90% | Amaranthus retroflexus (Efficacy in %) (Amaranthus retroflexus [3]): 100% | Echinochloa crus-galli (Efficacy in %) (Echinochloa crus-galli [4]): 90% | Lolium rigidum (Efficacy in %) (Lolium rigidum [5]): 80% | Matricaria inodora (Efficacy in %) (Matricaria inodora [6]): 100% | Pharbitis purpurea (Efficacy in %) (Pharbitis purpurea [7]): 100% | Polygonum convolvulus (Efficacy in %) (Polygonum convolvulus): 100% | Setaria viridis (Efficacy in %) (Setaria viridis [8]): 100% | Stellaria media (Efficacy in %) (Stellaria media [9]): 100% | Veronica persica (Efficacy in %) (Veronica persica [10]): 100% | Viola tricolor (Efficacy in %) (Viola tricolor [11]): 100% | Oryza sativa (Efficacy in %) (Oryza sativa; application rate 20 g/ha): 20% | Triticum aestivum (Efficacy in %) (Triticum aestivum; application rate 20 g/ha): 20% | Abutilon theophrasti (Efficacy in %) (Abutilon theophrasti [12]): 100% | Alopecurus myosuroides (Efficacy in %) (Alopecurus myosuroides [13]): 100% | Amaranthus retroflexus (Efficacy in %) (Amaranthus retroflexus [14]): 100% | Avena fatua (Efficacy in %) (Avena fatua): 100% | Cyperus esculentus (Efficacy in %) (Cyperus esculentus): 80% | Echinochloa crus-galli (Efficacy in %) (Echinochloa crus-galli [15]): 100% | Hordeum murinum (Efficacy in %) (Hordeum murinum [16]): 90% | Lolium rigidum (Efficacy in %) (Lolium rigidum [17]): 90% | Matricaria inodora (Efficacy in %) (Matricaria inodora [18]): 100% | Pharbitis purpurea (Efficacy in %) (Pharbitis purpurea [19]): 100% | Setaria viridis (Efficacy in %) (Setaria viridis [20]): 100% | Stellaria media (Efficacy in %) (Stellaria media [21]): 100% | Veronica persica (Efficacy in %) (Veronica persica [22]): 100% | Viola tricolor (Efficacy in %) (Viola tricolor [23]): 100%

CC1CC(COC(=O)C(C)Sc2cc(-n3c(=O)cc(C(F)(F)F)n(C)c3=O)c(F)cc2Cl)CO1 (stereo not shown) [I.1-73]
Abutilon theophrasti (Efficacy in %) (Abutilon theophrasti [1]): 100% | Alopecurus myosuroides (Efficacy in %) (Alopecurus myosuroides [2]): 90% | Amaranthus retroflexus (Efficacy in %) (Amaranthus retroflexus [3]): 100% | Digitaria sanguinalis (Efficacy in %) (Digitaria sanguinalis [24]): 100% | Echinochloa crus-galli (Efficacy in %) (Echinochloa crus-galli [4]): 100% | Hordeum murinum (Efficacy in %) (Hordeum murinum [25]): 80% | Lolium rigidum (Efficacy in %) (Lolium rigidum [5]): 90% | Matricaria inodora (Efficacy in %) (Matricaria inodora [6]): 100% | Pharbitis purpurea (Efficacy in %) (Pharbitis purpurea [7]): 100% | Polygonum convolvulus (Efficacy in %) (Polygonum convolvulus): 100% | Setaria viridis (Efficacy in %) (Setaria viridis [8]): 100% | Stellaria media (Efficacy in %) (Stellaria media [9]): 100% | Veronica persica (Efficacy in %) (Veronica persica [10]): 100% | Viola tricolor (Efficacy in %) (Viola tricolor [11]): 100% | Oryza sativa (Efficacy in %) (Oryza sativa; application rate 20 g/ha): 5% | Triticum aestivum (Efficacy in %) (Triticum aestivum; application rate 80 g/ha): 20% | Abutilon theophrasti (Efficacy in %) (Abutilon theophrasti [12]): 100% | Amaranthus retroflexus (Efficacy in %) (Amaranthus retroflexus [14]): 100% | Avena fatua (Efficacy in %) (Avena fatua): 90% | Digitaria sanguinalis (Efficacy in %) (Digitaria sanguinalis [26]): 100% | Echinochloa crus-galli (Efficacy in %) (Echinochloa crus-galli [15]): 100% | Hordeum murinum (Efficacy in %) (Hordeum murinum [16]): 90% | Lolium rigidum (Efficacy in %) (Lolium rigidum [17]): 100% | Matricaria inodora (Efficacy in %) (Matricaria inodora [18]): 100% | Pharbitis purpurea (Efficacy in %) (Pharbitis purpurea [19]): 100% | Setaria viridis (Efficacy in %) (Setaria viridis [20]): 100% | Stellaria media (Efficacy in %) (Stellaria media [21]): 100% | Veronica persica (Efficacy in %) (Veronica persica [22]): 100% | Viola tricolor (Efficacy in %) (Viola tricolor [23]): 100% | Glycine max (Efficacy in %) (Glycine max; application rate 80 g/ha): 0% | Zea mays (Efficacy in %) (Zea mays): 0%

CCOCCCOC(=O)C(C)Sc1cc(-n2c(=O)cc(C(F)(F)F)n(C)c2=O)c(F)cc1Cl (stereo not shown) [I.1-27]
Abutilon theophrasti (Efficacy in %) (Abutilon theophrasti [1]): 100% | Alopecurus myosuroides (Efficacy in %) (Alopecurus myosuroides [2]): 90% | Amaranthus retroflexus (Efficacy in %) (Amaranthus retroflexus [3]): 100% | Digitaria sanguinalis (Efficacy in %) (Digitaria sanguinalis [24]): 100% | Echinochloa crus-galli (Efficacy in %) (Echinochloa crus-galli [4]): 100% | Hordeum murinum (Efficacy in %) (Hordeum murinum [25]): 80% | Lolium rigidum (Efficacy in %) (Lolium rigidum [5]): 80% | Matricaria inodora (Efficacy in %) (Matricaria inodora [6]): 100% | Pharbitis purpurea (Efficacy in %) (Pharbitis purpurea [7]): 100% | Polygonum convolvulus (Efficacy in %) (Polygonum convolvulus): 100% | Setaria viridis (Efficacy in %) (Setaria viridis [8]): 100% | Stellaria media (Efficacy in %) (Stellaria media [9]): 100% | Veronica persica (Efficacy in %) (Veronica persica [10]): 100% | Viola tricolor (Efficacy in %) (Viola tricolor [11]): 100% | Oryza sativa (Efficacy in %) (Oryza sativa; application rate 5 g/ha): 10% | Triticum aestivum (Efficacy in %) (Triticum aestivum; application rate 5 g/ha): 10% | Abutilon theophrasti (Efficacy in %) (Abutilon theophrasti [12]): 100% | Alopecurus myosuroides (Efficacy in %) (Alopecurus myosuroides [13]): 80% | Amaranthus retroflexus (Efficacy in %) (Amaranthus retroflexus [14]): 100% | Digitaria sanguinalis (Efficacy in %) (Digitaria sanguinalis [26]): 100% | Echinochloa crus-galli (Efficacy in %) (Echinochloa crus-galli [15]): 100% | Hordeum murinum (Efficacy in %) (Hordeum murinum [16]): 80% | Lolium rigidum (Efficacy in %) (Lolium rigidum [17]): 90% | Matricaria inodora (Efficacy in %) (Matricaria inodora [18]): 100% | Pharbitis purpurea (Efficacy in %) (Pharbitis purpurea [19]): 100% | Setaria viridis (Efficacy in %) (Setaria viridis [20]): 100% | Stellaria media (Efficacy in %) (Stellaria media [21]): 100% | Veronica persica (Efficacy in %) (Veronica persica [22]): 100% | Viola tricolor (Efficacy in %) (Viola tricolor [23]): 100% | Glycine max (Efficacy in %) (Glycine max; application rate 80 g/ha): 20% | Zea mays (Efficacy in %) (Zea mays): 0%

COCCCOC(=O)C(C)Sc1cc(-n2c(=O)cc(C(F)(F)F)n(C)c2=O)c(F)cc1Cl (stereo not shown) [I.1-26]
Abutilon theophrasti (Efficacy in %) (Abutilon theophrasti [1]): 100% | Alopecurus myosuroides (Efficacy in %) (Alopecurus myosuroides [2]): 80% | Amaranthus retroflexus (Efficacy in %) (Amaranthus retroflexus [3]): 100% | Digitaria sanguinalis (Efficacy in %) (Digitaria sanguinalis [24]): 100% | Echinochloa crus-galli (Efficacy in %) (Echinochloa crus-galli [4]): 100% | Hordeum murinum (Efficacy in %) (Hordeum murinum [25]): 90% | Lolium rigidum (Efficacy in %) (Lolium rigidum [5]): 90% | Matricaria inodora (Efficacy in %) (Matricaria inodora [6]): 100% | Pharbitis purpurea (Efficacy in %) (Pharbitis purpurea [7]): 100% | Polygonum convolvulus (Efficacy in %) (Polygonum convolvulus): 100% | Setaria viridis (Efficacy in %) (Setaria viridis [8]): 100% | Stellaria media (Efficacy in %) (Stellaria media [9]): 100% | Veronica persica (Efficacy in %) (Veronica persica [10]): 100% | Viola tricolor (Efficacy in %) (Viola tricolor [11]): 100% | Oryza sativa (Efficacy in %) (Oryza sativa; application rate 5 g/ha): 10% | Triticum aestivum (Efficacy in %) (Triticum aestivum; application rate 5 g/ha): 20% | Abutilon theophrasti (Efficacy in %) (Abutilon theophrasti [12]): 100% | Amaranthus retroflexus (Efficacy in %) (Amaranthus retroflexus [14]): 100% | Avena fatua (Efficacy in %) (Avena fatua): 80% | Digitaria sanguinalis (Efficacy in %) (Digitaria sanguinalis [26]): 100% | Echinochloa crus-galli (Efficacy in %) (Echinochloa crus-galli [15]): 100% | Hordeum murinum (Efficacy in %) (Hordeum murinum [16]): 100% | Lolium rigidum (Efficacy in %) (Lolium rigidum [17]): 90% | Matricaria inodora (Efficacy in %) (Matricaria inodora [18]): 100% | Pharbitis purpurea (Efficacy in %) (Pharbitis purpurea [19]): 100% | Setaria viridis (Efficacy in %) (Setaria viridis [20]): 100% | Stellaria media (Efficacy in %) (Stellaria media [21]): 100% | Veronica persica (Efficacy in %) (Veronica persica [22]): 100% | Viola tricolor (Efficacy in %) (Viola tricolor [23]): 100% | Glycine max (Efficacy in %) (Glycine max; application rate 20 g/ha): 0% | Zea mays (Efficacy in %) (Zea mays): 10%
